Data reported in US20020137929A1, “1 - (3-heterocyclylphenyl) isothiourea, -isourea, -guanidine and -amidine herbicidal agents” (Intellectual Property Department, BASF Aktiengesellschaft, priority 1998, published 2002).

Columns and labels:
[1] = system: ABUTH (Velvetleaf); test: Postemergence herbicidal evaluation; assay type: in vivo, Abutilon theophrasti; conditions: for ABUTH herbicidal rating: postemergence
Method in brief: (§1)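 Seedlings grown about two weeks were sprayed at 40 psi with compound dispersed in 50/50 acetone/water plus 0.5% TWEEN 20, at about 0.0156 to 0.500 kg/ha. Plants were kept in the greenhouse and scored 4–5 weeks later on a 0–9 visual scale against untreated controls.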

[2] = system: GALAP (Galium); test: Postemergence herbicidal evaluation; assay type: in vivo, Galium aparine; conditions: for GALAP herbicidal rating: postemergence
Method in brief: as §1

[3] = system: ECHCG (Barnyardgrass); test: Postemergence herbicidal evaluation; assay type: in vivo, Echinochloa crus-galli; conditions: for ECHCG herbicidal rating: postemergence
Method in brief: as §1

[4] = system: SETVI (Foxtail, Green); test: Postemergence herbicidal evaluation; assay type: in vivo, Setaria viridis; conditions: for SETVI herbicidal rating: postemergence
Method in brief: as §1

[5] = system: ORYSAT (Rice, Tebonnet); test: Postemergence herbicidal evaluation; assay type: in vivo, Oryza sativa, (L.) Tebonnet; conditions: for ORYSAT herbicidal rating: postemergence
Method in brief: as §1

[6] = system: IPOHE (Morningglory, Ivyleaf); test: Preemergence herbicidal evaluation; assay type: in vivo, Ipomoea hederacea; conditions: rated 4-5 weeks after treatment
Method in brief: (§2)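 Scores use a 0–9 visual scale covering stand, vigor, malformation, size and chlorosis relative to controls, rated four to five weeks after treatment. Before emergence, soil-planted seeds were sprayed with compound in aqueous acetone at roughly 0.0156–0.500 kg/ha and held in the greenhouse.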

[7] = system: TRZAWR (Wheat, Winter, cv Riband); test: Preemergence herbicidal evaluation; assay type: in vivo, Triticum aestivum; conditions: rated 4-5 weeks after treatment
Method in brief: as §2

[8] = system: ZEAMX (Corn, Field); test: Preemergence herbicidal evaluation; assay type: in vivo, Zea mays; conditions: rated 4-5 weeks after treatment
Method in brief: as §2

[9] = system: ECHORC (Watergrass (Calif.)); test: Preemergence weed control under flooded paddy conditions; assay type: in vivo, Echinochloa oryzoides; conditions: rated 3-4 weeks after treatment
Method in brief: (§3)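 Visual injury scored 0-9 against control three to four weeks post-treatment, greenhouse-grown. Application: acetone/water (50/50) solutions dosed directly into flood water (1.5-3 cm over silt loam, planted top 0.5 cm), roughly 0.0313 to 0.500 kg/ha active ingredient.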

[10] = system: CYPIR (Rice Flatsedge); test: as above; assay type: in vivo, Cyperus iria; conditions: rated 3-4 weeks after treatment
Method in brief: as §3

[11] = system: MOOVA (Monochoria); test: as above; assay type: in vivo, Monochoria vaginalis; conditions: rated 3-4 weeks after treatment
Method in brief: as §3

[12] = system: CYPIR (Rice Flatsedge); test: Postemergence weed control under flooded paddy conditions; assay type: in vivo, Cyperus iria; conditions: postemergence weeds
Method in brief: (§4)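 Flood-water application, about 0.0313–0.500 kg/ha a.i. in aqueous/acetone 50/50 v/v; water depth 1.5–3 cm throughout. Weeds 3–5 cm, rice 1.5–2.5 leaf. Greenhouse; 0–9 visual rating vs control at 3–4 wk.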

[13] = system: CYPSE (Flatsedge); test: as above; assay type: in vivo, Cyperus serotinus; conditions: postemergence weeds
Method in brief: as §4

[14] = system: SAGPY (Arrowhead (Pygmaea)); test: as above; assay type: in vivo, Sagittaria pygmaea; conditions: postemergence weeds
Method in brief: as §4

[15] = Rate 0.0313 kg/ha, rated 3 to 4 weeks after treatment
[16] = Rate 0.0625 kg/ha, rated 3 to 4 weeks after treatment
[17] = Rate 0.1250 kg/ha, rated 3 to 4 weeks after treatment
[18] = Rate 0.2500 kg/ha, rated 3 to 4 weeks after treatment
[19] = rate 0.0313 kg/ha, 3-4 weeks after treatment
[20] = rate 0.0625 kg/ha, 3-4 weeks after treatment
[21] = rate 0.1250 kg/ha, 3-4 weeks after treatment
[22] = rate 0.2500 kg/ha, 3-4 weeks after treatment

CCOC(=O)CN1C(=O)C(CC(=O)Nc2ccccc2)SC1=Nc1cc(-n2c(=O)cc(C(F)(F)F)n(C)c2=O)c(F)cc1Cl (centres unmarked) [Compound 68, Ethyl 2-{{2-chloro-5-[3,6-dihydro-3-methyl-2,6-dioxo-4-(trifluoromethyl)-1(2H)-pyrimidinyl]-4-fluorophenyl}imino}-4-oxo-5-[(phenylcarbamoyl)-methyl]-3-thiazolidineacetate]
ABUTH herbicidal rating ([1]; rate 0.0158 kg/ha): 7.0 | ABUTH herbicidal rating ([1]; rate 0.0315 kg/ha): 9.0 | ABUTH herbicidal rating ([1]; rate 0.0630 kg/ha): 7.0 | GALAP herbicidal rating ([2]; rate 0.0158 kg/ha): 2.0 | GALAP herbicidal rating ([2]; rate 0.0315 kg/ha): 3.0 | GALAP herbicidal rating ([2]; rate 0.0630 kg/ha): 4.0 | ECHCG herbicidal rating ([3]; rate 0.0158 kg/ha): 2.0 | ECHCG herbicidal rating ([3]; rate 0.0315 kg/ha): 2.0 | ECHCG herbicidal rating ([3]; rate 0.0630 kg/ha): 5.0 | SETVI herbicidal rating ([4]; rate 0.0158 kg/ha): 2.0 | SETVI herbicidal rating ([4]; rate 0.0315 kg/ha): 6.0 | SETVI herbicidal rating ([4]; rate 0.0630 kg/ha): 6.0 | ORYSAT herbicidal rating ([5]; rate 0.0158 kg/ha): 3.0 | ORYSAT herbicidal rating ([5]; rate 0.0315 kg/ha): 3.5 | ORYSAT herbicidal rating ([5]; rate 0.0630 kg/ha): 4.0 | Preemergence herbicidal rating IPOHE ([6]; rate 0.0156 kg/ha): 0.0 | Preemergence herbicidal rating IPOHE ([6]; rate 0.0313 kg/ha): 0.0 | Preemergence herbicidal rating IPOHE ([6]; rate 0.0625 kg/ha): 0.0 | Preemergence herbicidal rating IPOHE ([6]; rate 0.1250 kg/ha): 0.0 | Preemergence herbicidal rating IPOHE ([6]; rate 0.2500 kg/ha): 6.0 | Preemergence herbicidal rating TRZAWR ([7]; rate 0.0156 kg/ha): 0.0 | Preemergence herbicidal rating TRZAWR ([7]; rate 0.0313 kg/ha): 0.0 | Preemergence herbicidal rating TRZAWR ([7]; rate 0.0625 kg/ha): 0.0 | Preemergence herbicidal rating TRZAWR ([7]; rate 0.1250 kg/ha): 0.0 | Preemergence herbicidal rating TRZAWR ([7]; rate 0.2500 kg/ha): 1.0 | Preemergence herbicidal rating ZEAMX ([8]; rate 0.0156 kg/ha): 0.0 | Preemergence herbicidal rating ZEAMX ([8]; rate 0.0313 kg/ha): 0.0 | Preemergence herbicidal rating ZEAMX ([8]; rate 0.0625 kg/ha): 0.0 | Preemergence herbicidal rating ZEAMX ([8]; rate 0.1250 kg/ha): 1.0 | Preemergence herbicidal rating ZEAMX ([8]; rate 0.2500 kg/ha): 1.0 | ECHORC herbicidal effect rating ([9]; 0.0313 kg/ha): 0.0 | ECHORC herbicidal effect rating ([9]; 0.0625 kg/ha): 5.0 | ECHORC herbicidal effect rating ([9]; 0.1250 kg/ha): 7.0 | ECHORC herbicidal effect rating ([9]; 0.2500 kg/ha): 7.0 | CYPIR herbicidal effect rating ([10]; 0.0313 kg/ha): 0.0 | CYPIR herbicidal effect rating ([10]; 0.0625 kg/ha): 0.0 | CYPIR herbicidal effect rating ([10]; 0.1250 kg/ha): 5.0 | CYPIR herbicidal effect rating ([10]; 0.2500 kg/ha): 8.0 | MOOVA herbicidal effect rating ([11]; 0.0313 kg/ha): 3.0 | MOOVA herbicidal effect rating ([11]; 0.0625 kg/ha): 9.0 | MOOVA herbicidal effect rating ([11]; 0.1250 kg/ha): 9.0 | MOOVA herbicidal effect rating ([11]; 0.2500 kg/ha): 9.0 | Herbicidal rating CYPIR [12, 15]: 0.0 | Herbicidal rating CYPIR [12, 16]: 0.0 | Herbicidal rating CYPIR [12, 17]: 5.0 | Herbicidal rating CYPIR [12, 18]: 8.0 | Herbicidal rating CYPSE [13, 15]: 0.0 | Herbicidal rating CYPSE [13, 16]: 0.0 | Herbicidal rating CYPSE [13, 17]: 0.0 | Herbicidal rating CYPSE [13, 18]: 0.0 | Herbicidal rating SAGPY [14, 15]: 0.0 | Herbicidal rating SAGPY [14, 16]: 0.0 | Herbicidal rating SAGPY [14, 17]: 0.0 | Herbicidal rating SAGPY [14, 18]: 3.0

CCOC(=O)CN1C(=O)C(CC(=O)OC)S/C1=N/c1cc(-n2c(=O)cc(C(F)(F)F)n(C)c2=O)c(F)cc1Cl (centres unmarked) [Compound 54, 2-{{2-Chloro-5-[3,6-dihydro-3-methyl-2,6-dioxo-4-(trifluoromethyl)-1(2H)-pyrimidinyl]-4-fluorophenyl}imino}-4-oxo-3,5-thiazolidinediacetic acid, 3-ethyl methyl ester]
Postemergence herbicidal rating ABUTH ([1]; Rate 0.0158 kg/ha): 9.0 | Postemergence herbicidal rating ABUTH ([1]; Rate 0.0315 kg/ha): 9.0 | Postemergence herbicidal rating ABUTH ([1]; Rate 0.0630 kg/ha): 9.0 | Postemergence herbicidal rating GALAP ([2]; Rate 0.0158 kg/ha): 6.0 | Postemergence herbicidal rating GALAP ([2]; Rate 0.0315 kg/ha): 9.0 | Postemergence herbicidal rating GALAP ([2]; Rate 0.0630 kg/ha): 9.0 | Postemergence herbicidal rating ECHCG ([3]; Rate 0.0158 kg/ha): 9.0 | Postemergence herbicidal rating ECHCG ([3]; Rate 0.0315 kg/ha): 9.0 | Postemergence herbicidal rating ECHCG ([3]; Rate 0.0630 kg/ha): 9.0 | Postemergence herbicidal rating SETVI ([4]; Rate 0.0158 kg/ha): 9.0 | Postemergence herbicidal rating SETVI ([4]; Rate 0.0315 kg/ha): 9.0 | Postemergence herbicidal rating SETVI ([4]; Rate 0.0630 kg/ha): 9.0 | Postemergence herbicidal rating ORYSAT ([5]; Rate 0.0158 kg/ha): 3.0 | Postemergence herbicidal rating ORYSAT ([5]; Rate 0.0315 kg/ha): 3.0 | Postemergence herbicidal rating ORYSAT ([5]; Rate 0.0630 kg/ha): 6.5 | Preemergence herbicidal rating IPOHE ([6]; rate 0.0156 kg/ha): 1.5 | Preemergence herbicidal rating IPOHE ([6]; rate 0.0313 kg/ha): 6.0 | Preemergence herbicidal rating IPOHE ([6]; rate 0.0625 kg/ha): 9.0 | Preemergence herbicidal rating IPOHE ([6]; rate 0.1250 kg/ha): 7.5 | Preemergence herbicidal rating IPOHE ([6]; rate 0.2500 kg/ha): 9.0 | Preemergence herbicidal rating IPOHE ([6]; rate 0.5000 kg/ha): 9.0 | Preemergence herbicidal rating TRZAWR ([7]; rate 0.0156 kg/ha): 0.0 | Preemergence herbicidal rating TRZAWR ([7]; rate 0.0313 kg/ha): 0.0 | Preemergence herbicidal rating TRZAWR ([7]; rate 0.0625 kg/ha): 0.0 | Preemergence herbicidal rating TRZAWR ([7]; rate 0.1250 kg/ha): 1.0 | Preemergence herbicidal rating TRZAWR ([7]; rate 0.2500 kg/ha): 3.0 | Preemergence herbicidal rating ZEAMX ([8]; rate 0.0156 kg/ha): 0.0 | Preemergence herbicidal rating ZEAMX ([8]; rate 0.0313 kg/ha): 1.0 | Preemergence herbicidal rating ZEAMX ([8]; rate 0.0625 kg/ha): 1.0 | Preemergence herbicidal rating ZEAMX ([8]; rate 0.1250 kg/ha): 2.0 | Preemergence herbicidal rating ZEAMX ([8]; rate 0.2500 kg/ha): 4.0 | Preemergence herbicidal rating ZEAMX ([8]; rate 0.5000 kg/ha): 3.0 | Herbicidal rating ECHORC ([9]; 0.0313 kg/ha): 5.0 | Herbicidal rating ECHORC ([9]; 0.0625 kg/ha): 5.0 | Herbicidal rating ECHORC ([9]; 0.1250 kg/ha): 7.0 | Herbicidal rating ECHORC ([9]; 0.2500 kg/ha): 9.0 | Herbicidal rating CYPIR ([10]; 0.0313 kg/ha): 0.0 | Herbicidal rating CYPIR ([10]; 0.0625 kg/ha): 4.0 | Herbicidal rating CYPIR ([10]; 0.1250 kg/ha): 4.0 | Herbicidal rating CYPIR ([10]; 0.2500 kg/ha): 4.0 | Herbicidal rating MOOVA ([11]; 0.0313 kg/ha): 0.0 | Herbicidal rating MOOVA ([11]; 0.0625 kg/ha): 0.0 | Herbicidal rating MOOVA ([11]; 0.1250 kg/ha): 6.0 | Herbicidal rating MOOVA ([11]; 0.2500 kg/ha): 6.0 | Herbicidal rating CYPIR [12, 19]: 0.0 | Herbicidal rating CYPIR [12, 20]: 4.0 | Herbicidal rating CYPIR [12, 21]: 4.0 | Herbicidal rating CYPIR [12, 22]: 4.0 | Herbicidal rating CYPSE [13, 19]: 0.0 | Herbicidal rating CYPSE [13, 20]: 0.0 | Herbicidal rating CYPSE [13, 21]: 0.0 | Herbicidal rating CYPSE [13, 22]: 4.0 | Herbicidal rating SAGPY [14, 19]: 0.0 | Herbicidal rating SAGPY [14, 20]: 0.0 | Herbicidal rating SAGPY [14, 21]: 0.0 | Herbicidal rating SAGPY [14, 22]: 2.0
